The source of these data is the OligoGym collection.

Where “and” joins values, the source holds several entries; their conditions need not be identical. Identical values can stand only once. After the bases stand the sugars from the 5' end (letter, count) and the backbone: PS all phosphorothioate, else s phosphorothioate and o phosphodiester by linkage. Methylation of C is not given here. e = 2'-O-(2-methoxyethyl) (MOE); k = constrained ethyl (cEt); d = 2'-deoxy (DNA)

The target in one series is IRF4. As to conditions: ASO, MM.1R, 1 µM.
For the sequence “GAAGTTTACACTGGAT (sugars kkdddddddddkdkdk, PS)”, the target mRNA inhibition was determined as 23%. Turning to “CTCTATAGTGTTCCAG (sugars k2 d9 e3 k2, PS)”, the target mRNA inhibition turned out to be 48%.

Consider “TGATAGCTGAGCTGAT (sugars kddddddddddkekek, PS)”, for which the target mRNA inhibition stood at 22%. Take “TTATATACTGGTTGGT (sugars kkdddddddddekeke, PS)”: the target mRNA inhibition was found to be 64%. With “GCACATCAATGTTTTA (sugars kkdddddddddkekek, PS)”, the target mRNA inhibition was 18% and 15%.

With “ACAGTGACTTGCATCC (sugars kkdddddddddekeke, PS)”, the target mRNA inhibition is 9%. “AGTATGAGAAACGGCC (sugars kkddddddddddkeke, PS)”: the target mRNA inhibition was found to be 9%. In the case of “TGGTTGGCTGGTCTTT (sugars k2 d9 e3 k2, PS)”, the target mRNA inhibition is 40%.

For the sequence CACAAAGCGGGTTCAC (sugars k3 d10 k3, PS), the target mRNA inhibition is -12%.

Take GCCTAGCATGGATCCT (sugars k3 d10 k3, PS): the target mRNA inhibition is -4%.

Staying with this series, now noted: ASO, SK-MEL-28, 4 µM.
In the case of AGCCTAGAGGTGCCTT (sugars k3 d10 k3, PS), the target mRNA inhibition was found to be 41%. As for TCAAACCCTACTGGGT (sugars k3 d10 k3, PS), the target mRNA inhibition was determined as 8%. On the same count and under the same terms, the value for GCTAAACCCAAAATAC (sugars k3 d10 k3, PS) was 4%. Same read-out and setting: the value for GCCAAGGACACCACCT (sugars k3 d10 k3, PS) was -2%; that for TTATGGACCACGCAGC (sugars k3 d10 k3, PS) was 31%. With TGCCACAGTTGAACCC (sugars k3 d10 k3, PS), the target mRNA inhibition was determined as 50%. In the case of ACTGAGATATCCTGCA (sugars k3 d10 k3, PS), the target mRNA inhibition stood at 19%. For ACCAAGCTGGGTTTGC (sugars k3 d10 k3, PS), the target mRNA inhibition turned out to be 53%. Turning to ACGAGGTAAATCTTCA (sugars k3 d10 k3, PS), the target mRNA inhibition amounted to 61%. As for GGAGTGCAGGAGAGGC (sugars k3 d10 k3, PS), the target mRNA inhibition came to 16%. On the same count and under the same terms, under AATTTTAAGGCCCTGT (sugars k3 d10 k3, PS) stands 24%; under GAGCGAAGGGTAAGGC (sugars k3 d10 k3, PS), 38%; under CATCAATCATGATATT (sugars k3 d10 k3, PS), 25%. With GCATAGAGTCACCTGG (sugars k3 d10 k3, PS), the target mRNA inhibition came out at 39%. The same measure, in the same setting: under GCCACTGGCGGAGCTT (sugars k3 d10 k3, PS) stands 23%; under GAGCTCTTCCAGATCC (sugars k3 d10 k3, PS), 5%. Still for that read-out and setting: the value for AATACGACAACTTTCC (sugars k3 d10 k3, PS) was 50%; that for ATCCACACCAATGGCA (sugars k3 d10 k3, PS) was 34%; that for ACTTAAGCAAGTGGAG (sugars k3 d10 k3, PS) was 63%. Still for that read-out and setting: under CCGCAGCTCACCGCGC (sugars k3 d10 k3, PS) stands 36%; under ACTAACTGGCTTCCAG (sugars k3 d10 k3, PS), 31%; under GGCACATGAGAAATCA (sugars k3 d10 k3, PS), 33%. As for CGGCAGACGGGAGCCC (sugars k3 d10 k3, PS), the target mRNA inhibition is 12%. Regarding TGGACACTTTTAGAGA (sugars k3 d10 k3, PS), the target mRNA inhibition is 72%. GACGACTTAAGCTAAA (sugars k3 d10 k3, PS): the target mRNA inhibition was 62%. Take AAGCATAGAGTCACCT (sugars k3 d10 k3, PS): the target mRNA inhibition is 36%. For GTGGACACTTTTAGAG (sugars k3 d10 k3, PS), the target mRNA inhibition was determined as 52%. As for CATTTCATTTAATGTC (sugars k3 d10 k3, PS), the target mRNA inhibition stood at 33%.

Consider GCCGCTGTCGATCTGG (sugars k4 d8 k4, PS), for which the target mRNA inhibition turned out to be 15%.
